Laboratory results: article PMC9774939, “Optimization of Pyrazole Compounds as Antibiotic Adjuvants Active against Colistin- and Carbapenem-Resistant Acinetobacter baumannii” (Antibiotics, 2022)
Read-outs that look alike come from different tables or passages of the source.

Experiments:
[1] = test system: Acinetobacter baumannii N50; experiment: Time-kill curve analysis; type: cell-based
Method: The time-dependent bacterial killing of colistin, compound 9, or a combination thereof was investigated using established methods. Briefly, a culture medium containing a starting inoculum of 5.0 × 10^6 CFU/mL of Acinetobacter baumannii N50 clinical isolate was incubated aerobically at 35 °C under orbital agitation (200 rpm) in Mueller–Hinton broth, in the absence (growth control) or presence of either 2 μg/mL of colistin (a concentration equivalent to the susceptibility breakpoint), 8 µg/mL of compound 9, or both. The bacterial count (expressed in CFU/mL) in the control and antibiotic-containing media was determined every hour for up to 6 h of incubation via serial 10-fold dilution and direct plating of 0.1 mL of the sample on the Mueller–Hinton Agar medium (without antibiotic), which was incubated for 24 h at 35 °C.

[2] = test system: K. pneumoniae SI-004Bo; experiment: Chequerboard analysis with colistin; type: cell-based, Klebsiella pneumoniae; settings: combination with colistin; pandrug-resistant, colistin-resistant isolate
From the text: (§1) Carbapenem-resistant, colistin-resistant, and XDR clinical isolates were kindly provided by Prof. Gian Maria Rossolini (University of Florence, Italy). Klebsiella pneumoniae SI-004Bo is a KPC-producing, pandrug-resistant isolate (KKBO-4 [17]) selected in vivo during colistin therapy (colistin resistance mechanism, IS-mediated insertional inactivation of mgrB). Acinetobacter baumannii N50 is an OXA-24-producing clinical isolate resistant to all β-lactams, aminoglycosides, and fluoroquinolones.
(§2) The chequerboard analysis is a two-dimensional array in which individual microplate wells contain a unique combination of the concentrations of the tested compound and colistin. Tested concentrations of the compound ranged from 64 to 0.06 μg/mL along the x-axis, whereas polymyxin E1 concentrations ranged from 2 to 0.03 μg/mL (or 32–0.5 μg/mL when polymyxin E1-resistant clinical isolates were used) and varied along the y-axis. Determining the fractional inhibitory concentration (FIC) of both compounds and computing the average FIC index allowed us to determine whether a synergistic, additive, or antagonistic activity between the tested compounds could be observed. A synergistic activity occurred when the average FIC index was equal to or less than 0.5 [21, 27].

[3] = test system: Acinetobacter baumannii ATCC 17978; experiment: MAC determination in the presence of subinhibitory colistin; type: cell-based; settings: for MAC Aba: in the presence of 0.5 × MIC colistin; for MIC/MAC Ratio Aba: minimal ratio of MIC of compound alone to MAC with 0.5 × MIC colistin
Method: (§3) The minimum inhibitory concentration (MIC) and minimum bactericidal concentration (MBC) of the compounds were determined in triplicate using Mueller–Hinton broth and a bacterial inoculum of 5 × 10^5 CFU/mL, as recommended by the CLSI [26]. The minimum antibacterial concentration (MAC) of the compounds was determined in the presence of a fixed and subinhibitory concentration of colistin (as mentioned above).

[4] = test system: K. pneumoniae ATCC 13833; experiment: Chequerboard analysis with colistin; type: cell-based, Klebsiella pneumoniae; settings: combination with colistin; synergy when ≤0.5
Method: as §2

[5] = test system: E. coli CCUG^T; experiment: Chequerboard analysis with colistin; type: cell-based, Escherichia coli; settings: combination with colistin; synergy when ≤0.5
Method: as §2

[6] = test system: Acinetobacter baumannii N50; experiment: MBC determination in the presence of colistin; type: cell-based; settings: in the presence of 2 µg/mL of colistin
Method: as §3

[7] = Hemolytic activity; type: cell-based; settings: 0.025–10 μg of compound
Method: The hemolytic activity of compounds 1, 2, 8, 9, 45, and 49 (0.025–10 μg) was investigated using the method described by Bechlars et al.. Triton X-100 was used as the hemolysis control and DMSO as the negative control.

[8] = test system: Klebsiella pneumoniae ATCC 13833; experiment: MAC determination in the presence of subinhibitory colistin; type: cell-based; set-up: key to MAC Kpn: -: No synergistic activity; settings: for MAC Kpn: in the presence of 0.5 × MIC colistin; for MIC/MAC Ratio Kpn: minimal ratio of MIC of compound alone to MAC with 0.5 × MIC colistin
Method: as §3

[9] = test system: A. baumannii N50; experiment: Chequerboard analysis with colistin; type: cell-based, Acinetobacter baumannii; settings: combination with colistin; MDR, colistin-resistant isolate
From the text: as §1, §2

[10] = test system: Escherichia coli CCUG^T; experiment: MAC determination in the presence of subinhibitory colistin; type: cell-based; settings: for MAC Eco: in the presence of 0.5 × MIC colistin; for MIC/MAC Ratio Eco: minimal ratio of MIC of compound alone to MAC with 0.5 × MIC colistin
Method: as §3

[11] = test system: A. baumannii ATCC 17978; experiment: Chequerboard analysis with colistin; type: cell-based, Acinetobacter baumannii; settings: combination with colistin; synergy when ≤0.5
Method: as §2

[12] = test system: HeLa cells; experiment: Cell viability and proliferation assay (RealTime-Glo MT); type: cell-based; settings: 16 µg/mL of compound, up to 72 h
Method: The cytotoxicity of the compounds was also evaluated by measuring the number of viable cells in the culture with respect to the control culture (cells treated with DMSO only) using the RealTime-Glo™ MT Cell Viability Assay in the presence of varying concentrations of the compound. The assay is a nonlytic homogeneous, bioluminescent method that can be used to measure cell viability/proliferation in real time using NanoLuc® luciferase and a cell-permeant prosubstrate (MT Cell Viability Substrate). […]

[13] = test system: Escherichia coli CCUG^T; set-up: method as in PMID 32435403; settings: parent compounds, cited from earlier work; for MAC Eco: in the presence of 0.5 × MIC colistin; for MIC/MAC Ratio Eco: minimal ratio
[14] = test system: Klebsiella pneumoniae ATCC 13833; set-up: method as in PMID 32435403; settings: parent compounds, cited from earlier work; for MAC Kpn: in the presence of 0.5 × MIC colistin; for MIC/MAC Ratio Kpn: minimal ratio
[15] = test system: Acinetobacter baumannii ATCC 17978; set-up: method as in PMID 32435403; settings: parent compounds, cited from earlier work; for MAC Aba: in the presence of 0.5 × MIC colistin; for MIC/MAC Ratio Aba: minimal ratio
[16] = test system: eight reference strains, Gram-positive and Gram-negative; set-up: method as in PMID 32435403; settings: parent compound; cited from earlier work
[17] = Membrane integrity assay (LDH release); type: cell-based; settings: human, HeLa cells; tested alone, 24 h exposure; read-out: IC50 cytotoxicity (membrane-damaging activity, LDH release)
Method: The potential cytotoxic activity of compounds was evaluated using the commercially available integrity assay (CytoTox 96® non-radioactive cytotoxicity assay, Promega). The compounds were tested for their ability to induce the lysis of HeLa cells by measuring the release of lactate dehydrogenase (LDH) after incubating the HeLa cell cultures (20,000 cells/well) for 24 h (37 °C, 5% CO2) in DMEM (Dulbecco’s Modified Eagle Medium) supplemented with 10% fetal bovine serum, 4.5 mg/mL glucose, and 2 mM L-glutamine in the absence and presence of varying concentrations of the compounds (up to 256 µg/mL). Further controls included samples containing the medium only or in which cell lysis was induced by the addition of 9% Triton X-100 (maximum LDH release control). The percentage of cytotoxicity was computed as 100 × (sample LDH release)/(maximum LDH release). The variation of the percentage of cytotoxicity allowed us to compute an IC50 value (compound concentration inducing 50% cytotoxicity).

Molecule: Colistin [reference compound]
- bactericidal effect (time-kill) ([1]; colistin alone at 2 µg/mL): not expectedly able to show any bactericidal effect

Molecule: CC(C)(C)OC(=O)[C@H](Cc1ccccc1)NC(=O)c1cnn(-c2ccccc2)c1-n1cccc1 [Compound 9, tert-Butyl (S)-3-Phenyl-2-[[[1-phenyl-5-(1H-pyrrol-1-yl)-1H-pyrazol-4-yl]carbonyl]amino]propanoate]
- Average FIC Index [2]: 1
- MAC Aba [3]: 4 µg/mL
- MIC/MAC Ratio Aba [3]: 128
- Average FIC Index [4]: 0.32
- Average FIC Index [5]: 0.33
- MBC [6]: > 64 µg/mL
- hemolytic activity [7]: no hemolytic activity could be observed
- MAC Kpn [8]: 8 µg/mL
- MIC/MAC Ratio Kpn [8]: 64
- reduction of bacterial population (time-kill) ([1]; 2 µg/mL of colistin and 8 µg/mL of 9, within 5 h): 4 log10
- antibacterial activity alone (time-kill) ([1]; 8 µg/mL of 9 alone): does not exhibit antibacterial activity
- Average FIC Index [9]: 0.23
- MAC Eco [10]: 8 µg/mL
- MIC/MAC Ratio Eco [10]: 64
- Average FIC Index [11]: 0.34
- proliferation of HeLa cells [12]: not significantly altered

Molecule: O=C(NCc1ccc2c(c1)OCO2)c1cnn(-c2ccccc2)c1-n1cccc1 [Compound 1]
- MAC Eco [13]: 64 µg/mL
- MIC/MAC Ratio Eco [13]: 8
- MAC Kpn [14]: 64 µg/mL
- MIC/MAC Ratio Kpn [14]: 8
- Average FIC Index [2]: 1
- MAC Aba [15]: 32 µg/mL
- MIC/MAC Ratio Aba [15]: 16
- Average FIC Index [4]: 0.5
- Average FIC Index [5]: 0.5
- hemolytic activity [7]: no hemolytic activity could be observed
- Average FIC Index [9]: 0.5
- direct antibacterial activity [16]: no direct antibacterial activity was observed
- Average FIC Index [11]: 0.38

Molecule: Cc1c(C(=O)Nc2ccc(S(C)(=N)=O)cc2)nn(-c2ccc(Cl)cc2)c1-n1cccc1 (stereo not drawn) [Compound 49, 1-(4-Chlorophenyl)-4-methyl-N-[4-(S-methylsulfonimidoyl)phenyl]-5-(1H-pyrrol-1-yl)-1H-pyrazole-3-carboxamide]
- Average FIC Index [2]: 1
- MAC Aba [3]: 8 µg/mL
- MIC/MAC Ratio Aba [3]: 64
- Average FIC Index [4]: 0.39
- Average FIC Index [5]: 0.32
- MBC [6]: > 64 µg/mL
- hemolytic activity [7]: no hemolytic activity could be observed
- MAC Kpn [8]: 4 µg/mL
- MIC/MAC Ratio Kpn [8]: 128
- Average FIC Index [9]: 0.31
- MAC Eco [10]: 8 µg/mL
- MIC/MAC Ratio Eco [10]: 64
- melting point: 207 to 210 °C
- Average FIC Index [11]: 0.38

Molecule: O=C(NC12CC3CC(CC(C3)C1)C2)c1cnn(-c2ccccc2)c1-n1cccc1 [Compound 8, N-(Adamantan-1-yl)-1-phenyl-5-(1H-pyrrol-1-yl)-1H-pyrazole-4-carboxamide]
- Average FIC Index [2]: 1
- MAC Aba [3]: 4 µg/mL
- MIC/MAC Ratio Aba [3]: 128
- Average FIC Index [4]: 0.5
- Average FIC Index [5]: 0.38
- MBC [6]: > 64 µg/mL
- hemolytic activity [7]: no hemolytic activity could be observed
- MAC Kpn [8]: - ^a
- IC50 at 24 h [17]: > 256 µg/mL
- Average FIC Index [9]: 0.24
- MAC Eco [10]: 32 µg/mL
- MIC/MAC Ratio Eco [10]: 16
- melting point: 167 to 169 °C
- Average FIC Index [11]: 0.31

Molecule: Cc1c(C(=O)N(C)CCN(C)C)nn(-c2ccc(Cl)cc2)c1-n1cccc1 [Compound 2]
- MAC Eco [13]: 64 µg/mL
- MIC/MAC Ratio Eco [13]: 8
- MAC Kpn [14]: 32 µg/mL
- MIC/MAC Ratio Kpn [14]: 16
- Average FIC Index [2]: 1
- MAC Aba [15]: 16 µg/mL
- MIC/MAC Ratio Aba [15]: 32
- Average FIC Index [4]: 0.5
- Average FIC Index [5]: 0.31
- hemolytic activity [7]: no hemolytic activity could be observed
- Average FIC Index [9]: 0.4
- Average FIC Index [11]: 0.39

Molecule: Cc1c(C(=O)Nc2ccc(O)cc2)nn(-c2ccc(Cl)cc2)c1-n1cccc1 [Compound 45, 1-(4-Chlorophenyl)-N-(4-hydroxyphenyl)-4-methyl-5-(1H-pyrrol-1-yl)-1H-pyrazole-3-carboxamide]
- Average FIC Index [2]: 1
- MAC Aba [3]: 8 µg/mL
- MIC/MAC Ratio Aba [3]: 64
- Average FIC Index [4]: 0.31
- Average FIC Index [5]: 0.31
- MBC [6]: > 64 µg/mL
- hemolytic activity [7]: no hemolytic activity could be observed
- MAC Kpn [8]: 4 µg/mL
- MIC/MAC Ratio Kpn [8]: 128
- Average FIC Index [9]: 0.26
- MAC Eco [10]: 4 µg/mL
- MIC/MAC Ratio Eco [10]: 128
- melting point: 226 to 228 °C
- Average FIC Index [11]: 0.31
